The text below walks through data of US8993574B2, “Pyrrole antifungal agents” (F2G Ltd, priority 2008, dated 2015).

≈ marks a conversion by molar mass, not a printed value. Some results are limits rather than exact numbers.

Common to all, as to format: cell-based
The subject of assay [1] is Aspergillus fumigatus AF210. Briefly: MIC, YAG medium. The settings on record: 24 h at 35° C, MIC banded into grades; for MIC: Aspergillus fumigatus, read-out: MIC grade, A. fumigatus 210. Summed up:
(§1)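 Endpoint is growth at OD 485 nm after 24 h at 35° C, with MIC defined as the lowest drug level giving >70% inhibition relative to untreated wells and recorded in mg/L. Tests ran in YAG broth with 1−2×10^4 cfu/mL spore inocula from Sabouraud-grown cultures. Drug ranges were 50-0.05 mg/L, repeated at 0.5-0.0005 mg/L when needed.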

In assay [2] the test system is Aspergillus flavus. Briefly: MIC, YAG medium. The settings on record: 24 h at 35° C, MIC banded into grades; for MIC: Aspergillus flavus, 24 h, read-out: MIC grade, A. flavus. In short, it runs like this: as §1
For assay [3], the system named is Aspergillus terreus AT49. Nature of the assay: MIC, YAG medium. The settings on record: 24 h at 35° C, MIC banded into grades; for MIC: Aspergillus terreus, read-out: MIC grade, A. terreus 49. In short, it runs like this: as §1
Assay [4] deals with Aspergillus fumigatus AF293. Nature of the assay: MIC, YAG medium. The settings on record: 24 h at 35° C, MIC banded into grades; for MIC: Aspergillus fumigatus, read-out: MIC grade, A. fumigatus. Summed up:
as §1

In assay [5] the test system is Aspergillus niger. Nature of the assay: MIC, YAG medium. The settings on record: 24 h at 35° C, MIC banded into grades; for MIC: Aspergillus niger, read-out: MIC grade, A. niger. Summed up: as §1
Assay [6] concerns Aspergillus terreus AT4. Briefly: MIC, YAG medium. The settings on record: 24 h at 35° C, MIC banded into grades; for MIC: Aspergillus terreus, read-out: MIC grade, A. terreus. Summed up:
as §1

Assay [7] deals with Aspergillus fumigatus AF210. Briefly: MIC, RPMI medium. The settings on record: for MIC: Aspergillus fumigatus, AF210, MIC banded into grades, read-out: MIC grade, A. fumigatus 210. Summed up: (§2)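 MIC taken as lowest drug level inhibiting growth by >80% relative to drug-free wells, read as OD at 485 nm after 24-48 h at 35° C. Organisms at 1−2×10^4 cfu/mL in RPMI (2% glucose, 0.135 M MOPS, pH 7.0) exposed to doubling dilutions spanning 50-0.05 mg/L.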

The subject of assay [8] is Aspergillus flavus. Nature of the assay: MIC, RPMI medium. The settings on record: MIC banded into grades; for MIC: Aspergillus flavus, read-out: MIC grade, A. flavus. In short, it runs like this:
as §2

Assay [9] concerns Aspergillus terreus AT49. Nature of the assay: MIC, RPMI medium. The settings on record: for MIC: Aspergillus terreus, AT49, MIC banded into grades, read-out: MIC grade, A. terreus 49. Summed up: as §2
Assay [10] has as its system Aspergillus fumigatus AF293. Nature of the assay: MIC, RPMI medium. The settings on record: for MIC: Aspergillus fumigatus, AF293, MIC banded into grades, read-out: MIC grade, A. fumigatus. In short, it runs like this: as §2
Assay [11] relates to Aspergillus niger. Briefly: MIC, RPMI medium. The settings on record: MIC banded into grades; for MIC: Aspergillus niger, read-out: MIC grade, A. niger. In short, it runs like this: as §2
The test system of assay [12] is Aspergillus terreus AT4. Nature of the assay: MIC, RPMI medium. The settings on record: for MIC: Aspergillus terreus, AT4, MIC banded into grades, read-out: MIC grade, A. terreus. In short, it runs like this: as §2

Turning to `COCCn1c(C)cc(C(C)C)c1C(=O)C(=O)Nc1ccc(N2CCN(c3cc(C)cc(C)n3)CC2)cc1` [Example 25, N-{4-[4-(4,6-Dimethyl-pyridin-2-yl)-piperazin-1-yl]-phenyl}-2-[3-isopropyl-1-(2-methoxy-ethyl)-5-methyl-1H-pyrrol-2-yl]-2-oxo-acetamide], the MIC in assay [1] was less than 1 µg/mL; in the assay with Aspergillus flavus [2] it was 1 to 10 µg/mL (≈ 1.93 to 19.3 µM); in the assay on Aspergillus terreus AT49 [3], 1 to 10 µg/mL (≈ 1.93 to 19.3 µM); in assay [4], less than 1 µg/mL; with Aspergillus niger [5], 1 to 10 µg/mL (≈ 1.93 to 19.3 µM); in the assay with Aspergillus terreus AT4 [6] it was 1 to 10 µg/mL (≈ 1.93 to 19.3 µM). Further, the MIC in [7] is 1 to 10 µg/mL (≈ 1.93 to 19.3 µM); in the assay on Aspergillus flavus [8] it was greater than 10 µg/mL; in the assay on Aspergillus terreus AT49 [9] it was greater than 10 µg/mL; in assay [10] it was greater than 10 µg/mL; in the assay on Aspergillus niger [11], 1 to 10 µg/mL (≈ 1.93 to 19.3 µM); in the assay with Aspergillus terreus AT4 [12] it was greater than 10 µg/mL.
Regarding `COCCn1ccc(-c2cccs2)c1C(=O)C(=O)Nc1ccc(N2CCN(c3cc(C)cc(C)n3)CC2)cc1` [Example 67, N-{4-[4-(4,6-Dimethyl-pyridin-2-yl)-piperazin-1-yl]-phenyl}-2-[1-(2-methoxy-ethyl)-3-thiophen-2-yl-1H-pyrrol-2-yl]-2-oxo-acetamide], the MIC in assay [1] was less than 1 µg/mL; in the assay with Aspergillus flavus [2] it was less than 1 µg/mL; with Aspergillus terreus AT49 [3], less than 1 µg/mL; in assay [4] it was less than 1 µg/mL; in the assay on Aspergillus niger [5], 1 to 10 µg/mL (≈ 1.84 to 18.4 µM); in the assay on Aspergillus terreus AT4 [6], less than 1 µg/mL. Besides, the MIC in [7] was 1 to 10 µg/mL (≈ 1.84 to 18.4 µM); in the assay on Aspergillus flavus [8], 1 to 10 µg/mL (≈ 1.84 to 18.4 µM); with Aspergillus terreus AT49 [9] it was less than 1 µg/mL; in assay [10] it was 1 to 10 µg/mL (≈ 1.84 to 18.4 µM); with Aspergillus niger [11], greater than 10 µg/mL; in the assay with Aspergillus terreus AT4 [12] it was less than 1 µg/mL.
Take `Cc1cc(-c2ccccc2)c(C(=O)C(=O)Nc2ccc(N3CCN(CC(C)C)CC3)cc2F)n1C` [Example 105, 2-(1,5-Dimethyl-3-phenyl-1H-pyrrol-2-yl)-N-[2-fluoro-4-(4-isobutyl-piperazin-1-yl)-phenyl]-2-oxo-acetamide]: the MIC (in assay [1]; in the assay on Aspergillus flavus [2]; in the assay on Aspergillus terreus AT49 [3]; in assay [4]; in the assay on Aspergillus niger [5]; in the assay with Aspergillus terreus AT4 [6]) was less than 1 µg/mL throughout. The MIC (in [7]; with Aspergillus flavus [8]; with Aspergillus terreus AT49 [9]; in [10]; in the assay on Aspergillus niger [11]; in the assay on Aspergillus terreus AT4 [12]) was less than 1 µg/mL each time.
Consider `Cc1cc(C)nc(N2CCN(c3ccc(NC(=O)C(=O)c4c(-c5ccccc5)cc(C)n4CC(=O)OC(C)C)cc3)CC2)c1` [Example 77, (2-{4-[4-(4,6-Dimethyl-pyridin-2-yl)-piperazin-1-yl]-phenylaminooxalyl}-5-methyl-3-phenyl-pyrrol-1-yl)-acetic acid isopropyl ester], for which the “MIC grade, A. fumigatus 210” value is listed as 3 (A grade of 3 represents an MIC of less than 1 mg/L) in assay [1] and 2 (A grade of 2 represents an MIC of from 1 to 10 mg/L) in assay [7] (MIC banded into grades). In addition, the “MIC grade, A. flavus” value against Aspergillus flavus [2] and against Aspergillus flavus [8] was 1 (a grade of 1 represents an MIC of greater than 10 mg/L) in each case. Further, the “MIC grade, A. terreus 49” value against Aspergillus terreus AT49 [3] is 2 (A grade of 2 represents an MIC of from 1 to 10 mg/L); in the assay with Aspergillus terreus AT49 [9] (MIC banded into grades), 1 (a grade of 1 represents an MIC of greater than 10 mg/L). The “MIC grade, A. fumigatus” value in [4] is 3 (A grade of 3 represents an MIC of less than 1 mg/L); in [10] (MIC banded into grades), 2 (A grade of 2 represents an MIC of from 1 to 10 mg/L). The “MIC grade, A. niger” value against Aspergillus niger [5] was 2 (A grade of 2 represents an MIC of from 1 to 10 mg/L); against Aspergillus niger [11], 1 (a grade of 1 represents an MIC of greater than 10 mg/L). Besides, the “MIC grade, A. terreus” value is listed as 2 (A grade of 2 represents an MIC of from 1 to 10 mg/L) against Aspergillus terreus AT4 [6] and 1 (a grade of 1 represents an MIC of greater than 10 mg/L) with Aspergillus terreus AT4 [12] (MIC banded into grades).
Turning to `Cc1cc(C)nc(N2CCN(c3ccc(NC(=O)C(=O)c4c(C(C)C)cc(C)n4C)cc3)CC2)c1` [Example 14, N-{4-[4-(4,6-Dimethyl-pyridin-2-yl)-piperazin-1-yl]-phenyl}-2-(3-isopropyl-1,5-dimethyl-1H-pyrrol-2-yl)-2-oxo-acetamide], the MIC (in assay [1]; with Aspergillus flavus [2]; in the assay on Aspergillus terreus AT49 [3]; in [4]; with Aspergillus niger [5]; with Aspergillus terreus AT4 [6]) was less than 1 µg/mL each time. Moreover, the MIC (in assay [7]; with Aspergillus flavus [8]; in the assay on Aspergillus terreus AT49 [9]; in assay [10]; in the assay on Aspergillus niger [11]; in the assay on Aspergillus terreus AT4 [12]) was less than 1 µg/mL each time.
As to `CCn1c(C)cc(-c2ccccc2)c1C(=O)C(=O)Nc1ccc(N2CCN(c3cc(C)cc(C)n3)CC2)cc1` [Example 34, N-{4-[4-(4,6-Dimethyl-pyridin-2-yl)-piperazin-1-yl]-phenyl}-2-(1-ethyl-5-methyl-3-phenyl-1H-pyrrol-2-yl)-2-oxo-acetamide], the MIC (in assay [1]; in the assay with Aspergillus flavus [2]; with Aspergillus terreus AT49 [3]; in [4]; in the assay on Aspergillus niger [5]; in the assay on Aspergillus terreus AT4 [6]) was less than 1 µg/mL in each case. Further, the MIC (in [7]; in the assay with Aspergillus flavus [8]; with Aspergillus terreus AT49 [9]; in assay [10]; in the assay on Aspergillus niger [11]; in the assay on Aspergillus terreus AT4 [12]) was less than 1 µg/mL throughout.
Take `Cc1cc(C)nc(N2CCN(c3ccc(NC(=O)C(=O)c4c(-c5ccccc5)cc(C)n4C)cc3COCCCN3CCN(C)CC3)CC2)c1` [Example 19, 2-(1,5-Dimethyl-3-phenyl-1H-pyrrol-2-yl)-N-{4-[4-(4,6-dimethyl-pyridin-2-yl)-piperazin-1-yl]-3-[3-(4-methyl-piperazin-1-yl)-propoxymethyl]-phenyl}-2-oxo-acetamide]: the minimal inhibitory concentration (MIC) in assay [1] is greater than 10 µg/mL; with Aspergillus flavus [2], 1 to 10 µg/mL (≈ 1.48 to 14.8 µM); in the assay with Aspergillus terreus AT49 [3], 1 to 10 µg/mL (≈ 1.48 to 14.8 µM); in [4] it was greater than 10 µg/mL; in the assay on Aspergillus niger [5] it was greater than 10 µg/mL; in the assay with Aspergillus terreus AT4 [6] it was greater than 10 µg/mL. The MIC (in [7]; with Aspergillus flavus [8]; in the assay on Aspergillus terreus AT49 [9]; in assay [10]; in the assay with Aspergillus niger [11]; in the assay with Aspergillus terreus AT4 [12]) was greater than 10 µg/mL throughout.
Regarding `CCOCn1c(C)cc(-c2ccccc2)c1C(=O)C(=O)Nc1ccc(N2CCN(c3cc(C)cc(C)n3)CC2)cc1` [Example 132, N-{4-[4-(4,6-Dimethyl-pyridin-2-yl)-piperazin-1-yl]-phenyl}-2-(1-ethoxymethyl-5-methyl-3-phenyl-1H-pyrrol-2-yl)-2-oxo-acetamide], the MIC (in [1]; in the assay with Aspergillus flavus [2]; in the assay with Aspergillus terreus AT49 [3]; in assay [4]; with Aspergillus niger [5]; in the assay on Aspergillus terreus AT4 [6]) was less than 1 µg/mL throughout. Further, the MIC in assay [7] is less than 1 µg/mL; in the assay on Aspergillus flavus [8], greater than 10 µg/mL; in the assay on Aspergillus terreus AT49 [9] it was less than 1 µg/mL; in assay [10] it was less than 1 µg/mL; in the assay with Aspergillus niger [11], less than 1 µg/mL; with Aspergillus terreus AT4 [12], less than 1 µg/mL.
Take `Cc1cc(-c2ccccc2)c(C(=O)C(=O)Nc2ccc(N3CCN(C(C)C(C)C)CC3)cc2)n1C` (stereo not drawn) [Example 150, 2-(1,5-Dimethyl-3-phenyl-1H-pyrrol-2-yl)-N-{4-[4-(1,2-dimethyl-propyl)-piperazin-1-yl]-phenyl}-2-oxo-acetamide]: the minimum inhibitory concentration (MIC) (in assay [1]; in the assay with Aspergillus flavus [2]; with Aspergillus terreus AT49 [3]; in assay [4]; with Aspergillus niger [5]; in the assay with Aspergillus terreus AT4 [6]) was less than 1 µg/mL throughout. Further, the MIC (in assay [7]; with Aspergillus flavus [8]; with Aspergillus terreus AT49 [9]; in assay [10]; in the assay on Aspergillus niger [11]; with Aspergillus terreus AT4 [12]) was less than 1 µg/mL in each case.

What is called MIC is the lowest concentration that inhibits growth of the organism.
